Measured values taken from patent US5977133A, “Pyridone antibiotic with improved safety profile” (priority 1998, dated 1999).
Structures can show the parent of a compound that is named as a salt.

System: bacteria
Test: In vitro antibacterial activity (overall statement)
Format: cell-based
Conditions: ciprofloxacin resistant strains

Q: With `CN[C@@H]1CN(c2c(F)cn3c(=O)c(C(=O)O)cc(C4CC4)c3c2C)CC12CC2` [Example 1, 1-cyclopropyl-8-(7(S)-N-methylamino-5-azaspiro[2.4]heptyl)-7-fluoro-9-methyl-4-oxo-4H-guinolizine-3-carboxylic acid hydrochloride] as the compound, how does the “activity against ciprofloxacin resistant strains in words” value read?
A: Its value is “highly active against ciprofloxacin resistant strains”.
